Experimental data taken from ChEMBL document CHEMBL3853302, “Anti-inflammatory and Quinone Reductase Inducing Compounds from Fermented Noni (Morinda citrifolia) Juice Exudates” (J Nat Prod, 2016).
pIC50: −log10 of the molar value. Active and inactive are the calls of the source. The rule behind the calls is not given here.

How the values were obtained:
[1] = Induction of quinone reductase-1 in mouse Hepa-1c1c7 cells assessed as reduction of 3-(4,5-dimethylthiazol-2-yl)-2,5-diphenyltetrazolium bromide at 50 uM after 48 hrs by crystal violet staining-based assay relative to control
HEK293 = assay: Inhibition of TNF-alpha-activated NFkappaB (unknown origin) expressed in HEK293 cells at 50 uM after 6 hrs by luciferase reporter gene assay relative to control; format: cell-based; details: Homo sapiens
[2] = Toxicity in HEK293 cells assessed as decrease in cell survival at 50 uM; format: cell-based; details: human, hek293, 50 µM
[3] = Inhibition of TNF-alpha-activated NFkappaB (unknown origin) transfected in HEK293 cells after 6 hrs by luciferase reporter gene assay; format: cell-based; details: Homo sapiens, HEK293, 6 h

| fold change (FC) [1] | Compound | inhibition (HEK293) [%] | Activity [2] | other results |
| --- | --- | --- | --- | --- |
| 2.5 | COC(=O)C1=CO[C@@H](O[C@@H]2O[C@H](CO)[C@@H](O)[C@H](O)[C@H]2O)[C@@H]2C(CO)=C[C@@H](O)[C@H]12 |  |  |  |
|  | COc1cc2oc(=O)ccc2cc1O[C@@H]1O[C@H](CO)[C@@H](O)[C@H](O)[C@H]1O |  |  | Activity [1]: Active |
| 2.3 | CCCCO[C@H]1C=C(CO)[C@H]2[C@H](O[C@@H]3O[C@H](CO)[C@@H](O)[C@H](O)[C@H]3O)OC=C(C(=O)O)[C@H]21 |  |  |  |
|  | O=C1O[C@@H]2[C@@H](O)CO[C@]2(O)[C@@]1(O)C/C=C/c1ccc(O)c(O)c1 | 70 | Non-Toxic |  |
|  | C[C@@H]1O[C@@H](OC[C@H]2O[C@@H](Oc3c(-c4ccc(O)cc4)oc4cc(O)cc(O)c4c3=O)[C@H](O)[C@@H](O)[C@@H]2O)[C@H](O)[C@H](O)[C@H]1O [NICOTIFLOROSIDE] | 62 | Non-Toxic |  |
|  | Cc1ccc(S(=O)(=O)N[C@@H](Cc2ccccc2)C(=O)CCl)cc1 [TPCK] |  |  | pIC50 [3]: 5.42 |
